Reference: patent publication US9605003B2, “Heterocyclic compounds and uses thereof” (Infinity Pharmaceuticals, Inc., priority 2011, dated 2017)

Tests used:
[1] = tested on: Balb/c splenic B cells; assay: B cell activation and proliferation assay (Alamar Blue); type: cell-based; conditions: Mus musculus, Less than 100 nanoMolar
Protocol: The ability of one or more subject compounds to inhibit B cell activitation and proliferation is determined according to standard procedures known in the art. For example, an in vitro cellular proliferation assay is established that measures the metabolic activity of live cells. The assay is performed in a 96 well microtiter plate using Alamar Blue reduction. Balb/c splenic B cells are purified over a Ficoll-Paque™ PLUS gradient followed by magnetic cell separation using a MACS B cell Isolation Kit (Miletenyi). Cells are plated in 90 μl at 50,000 cells/well in B Cell Media (RPMI+10% FBS+Penn/Strep+50 μM bME+5 mM HEPES). A compound provided herein is diluted in B Cell Media and added in a 10 μl volume. Plates are incubated for 30 min at 37° C. and 5% CO2 (0.2% DMSO final concentration). A 50 μl B cell stimulation cocktail is then added containing either 10 μg/ml LPS or 5 μg/ml F(ab′)2 Donkey anti-mouse IgM plus 2 ng/ml recombinant mouse IL4 in B Cell Media. Plates are incubated for 72 hours at 37° C. and 5% CO2. A volume of 15 μL of Alamar Blue reagent is added to each well and plates are incubated for 5 hours at 37° C. and 5% CO2. Alamar Blue fluoresce is read at 560Ex/590Em, and IC50 or EC50 values are calculated using GraphPad Prism 5.

[2] = target: T1, PI3Kα (Homo sapiens, UniProt P42336); assay: PI3 Kinase HTRF assay, PI3Kα; type: biochemical; conditions: Between 1 μM and 10 μM; read-out: PI3K α IC50
T1 construct: purchased Millipore Corporation 14-602-K
T1 sequence (P42336 whole entry): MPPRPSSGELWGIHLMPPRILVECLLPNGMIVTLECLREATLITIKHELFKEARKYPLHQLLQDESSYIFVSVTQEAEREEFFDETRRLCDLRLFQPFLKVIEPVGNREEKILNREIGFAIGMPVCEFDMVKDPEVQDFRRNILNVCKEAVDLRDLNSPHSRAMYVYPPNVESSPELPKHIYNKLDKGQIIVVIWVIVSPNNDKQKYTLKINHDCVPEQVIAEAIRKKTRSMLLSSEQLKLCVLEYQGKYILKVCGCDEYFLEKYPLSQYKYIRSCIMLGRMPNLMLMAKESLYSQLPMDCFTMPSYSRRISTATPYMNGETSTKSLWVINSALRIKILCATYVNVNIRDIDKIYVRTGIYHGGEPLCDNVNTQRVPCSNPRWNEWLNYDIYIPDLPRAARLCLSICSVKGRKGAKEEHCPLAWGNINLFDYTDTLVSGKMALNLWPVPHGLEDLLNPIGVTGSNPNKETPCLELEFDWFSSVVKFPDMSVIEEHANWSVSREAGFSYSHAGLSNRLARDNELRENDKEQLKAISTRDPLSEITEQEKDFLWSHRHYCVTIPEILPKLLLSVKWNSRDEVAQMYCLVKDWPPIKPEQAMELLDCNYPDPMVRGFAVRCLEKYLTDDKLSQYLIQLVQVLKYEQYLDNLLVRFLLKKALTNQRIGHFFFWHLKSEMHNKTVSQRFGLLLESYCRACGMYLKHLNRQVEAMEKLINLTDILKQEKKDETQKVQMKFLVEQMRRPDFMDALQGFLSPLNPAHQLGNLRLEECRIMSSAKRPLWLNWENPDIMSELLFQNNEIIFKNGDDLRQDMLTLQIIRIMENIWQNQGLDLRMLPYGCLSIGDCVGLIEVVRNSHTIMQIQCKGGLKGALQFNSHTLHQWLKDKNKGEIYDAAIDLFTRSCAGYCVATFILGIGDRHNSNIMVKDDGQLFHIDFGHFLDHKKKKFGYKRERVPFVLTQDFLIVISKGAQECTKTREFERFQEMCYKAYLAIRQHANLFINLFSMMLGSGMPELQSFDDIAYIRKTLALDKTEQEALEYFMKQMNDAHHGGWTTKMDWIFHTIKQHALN
T1 sequence (P27986 whole entry partner): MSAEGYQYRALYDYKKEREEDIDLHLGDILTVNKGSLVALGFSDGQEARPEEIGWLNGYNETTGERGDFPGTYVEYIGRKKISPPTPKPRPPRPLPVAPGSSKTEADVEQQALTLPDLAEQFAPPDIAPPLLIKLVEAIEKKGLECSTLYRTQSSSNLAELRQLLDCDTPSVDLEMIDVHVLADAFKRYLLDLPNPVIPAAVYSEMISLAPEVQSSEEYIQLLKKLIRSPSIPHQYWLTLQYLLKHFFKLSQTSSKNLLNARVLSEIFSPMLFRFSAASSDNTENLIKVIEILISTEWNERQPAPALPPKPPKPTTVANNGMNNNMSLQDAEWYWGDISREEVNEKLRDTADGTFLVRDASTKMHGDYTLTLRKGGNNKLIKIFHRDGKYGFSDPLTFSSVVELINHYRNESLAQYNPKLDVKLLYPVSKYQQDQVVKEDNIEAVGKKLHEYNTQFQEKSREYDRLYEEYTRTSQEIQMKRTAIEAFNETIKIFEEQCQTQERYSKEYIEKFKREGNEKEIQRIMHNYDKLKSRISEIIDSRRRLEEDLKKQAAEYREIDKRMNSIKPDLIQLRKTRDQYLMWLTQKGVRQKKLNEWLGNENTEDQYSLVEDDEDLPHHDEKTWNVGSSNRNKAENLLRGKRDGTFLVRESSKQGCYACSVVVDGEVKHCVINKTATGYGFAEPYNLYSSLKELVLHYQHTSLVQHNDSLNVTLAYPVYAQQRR
Description: (§1) A PI3-Kinase HTRF® assay kit (cat No. 33-016) purchased from Millipore Corporation was used to screen compounds provided herein. This assay used specific, high affinity binding of the GRP1 pleckstrin homology (PH) domain to PIP3, the product of a Class 1A or 1B PI3 Kinase acting on its physiological substrate PIP2. During the detection phase of the assay, a complex was generated between the GST-tagged PH domain and biotinylated short chain PIP3. The biotinylated PIP3 and the GST-tagged PH domain recruited fluorophores (Streptavidin-Allophycocyanin and Europium-labeled anti-GST respectively) to form the fluorescence resonance energy transfer (FRET) architecture, generating a stable time-resolved FRET signal. The FRET complex was disrupted in a competitive manner by non-biotinylated PIP3, a product formed in the PI3 Kinase assay.
(§2) PI3 Kinase α, β, γ and δ activity was assayed using the PI3 Kinase HTRF® assay kit (catalogue No. 33-016) purchased from Millipore Corporation. Purified recombinant PI3Kα (catalogue No. 14-602-K), PI3Kβ (catalogue No. 14-603-K), PI3Kγ (catalogue No. 14-558-K) and PI3Kδ (catalogue No. 14-604-K) were obtained from Millipore Corporation. Purified recombinant PI3K enzyme was used to catalyze the phosphorylation of phosphatidylinositol 4,5-bisphosphate (PIP2 at 10 μM) to phosphatidylinositol 3,4,5-trisphosphate (PIP3) in the presence of 10 μM ATP. The assay was carried out in 384-well format and detected using a Perkin Elmer EnVision Xcite Multilabel Reader. Emission ratios were converted into percent inhibitions and imported into GraphPad Prism software. The concentration necessary to achieve inhibition of enzyme activity by 50% (IC50) was calculated using concentrations ranging from 20 μM to 0.1 nM (12-point curve). IC50 values were determined using a nonlinear regression model available in GraphPad Prism 5.

[3] = target: T2, PI3Kβ (Homo sapiens, UniProt P42338); assay: PI3 Kinase HTRF assay, PI3Kβ; type: biochemical; conditions: Between 1 μM and 10 μM; read-out: PI3K β IC50
T2 construct: purchased Millipore Corporation 14-603-K
T2 sequence (P42338 whole entry): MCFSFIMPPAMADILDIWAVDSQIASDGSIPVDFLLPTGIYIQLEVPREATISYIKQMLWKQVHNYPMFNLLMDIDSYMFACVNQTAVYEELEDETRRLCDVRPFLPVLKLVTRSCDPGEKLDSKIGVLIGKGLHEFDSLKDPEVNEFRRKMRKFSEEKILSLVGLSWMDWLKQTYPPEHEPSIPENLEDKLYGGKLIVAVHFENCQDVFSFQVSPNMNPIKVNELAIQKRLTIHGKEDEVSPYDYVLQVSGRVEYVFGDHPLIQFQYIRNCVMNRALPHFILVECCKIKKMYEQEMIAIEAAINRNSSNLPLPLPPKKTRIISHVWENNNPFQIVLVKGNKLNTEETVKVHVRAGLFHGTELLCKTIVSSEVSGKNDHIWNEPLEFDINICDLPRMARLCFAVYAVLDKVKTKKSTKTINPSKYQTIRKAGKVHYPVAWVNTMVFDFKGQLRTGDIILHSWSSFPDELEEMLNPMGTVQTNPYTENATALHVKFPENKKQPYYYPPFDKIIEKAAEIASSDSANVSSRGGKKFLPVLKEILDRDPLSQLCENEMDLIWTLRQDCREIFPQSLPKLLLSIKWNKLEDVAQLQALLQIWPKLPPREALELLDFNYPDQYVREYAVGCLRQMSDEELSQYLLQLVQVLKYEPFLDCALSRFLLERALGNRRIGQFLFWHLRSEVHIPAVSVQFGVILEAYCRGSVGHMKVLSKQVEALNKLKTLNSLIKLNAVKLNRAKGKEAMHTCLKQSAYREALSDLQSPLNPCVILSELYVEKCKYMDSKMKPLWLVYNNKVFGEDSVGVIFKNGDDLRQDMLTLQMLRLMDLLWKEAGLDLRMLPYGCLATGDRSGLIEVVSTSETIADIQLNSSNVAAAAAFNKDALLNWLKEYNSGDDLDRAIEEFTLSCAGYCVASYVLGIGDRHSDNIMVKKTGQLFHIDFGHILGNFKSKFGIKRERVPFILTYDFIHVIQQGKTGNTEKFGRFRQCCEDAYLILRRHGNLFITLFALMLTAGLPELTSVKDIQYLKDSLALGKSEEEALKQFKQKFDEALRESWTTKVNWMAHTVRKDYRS
T2 sequence (P27986 2-724 partner limits assumed): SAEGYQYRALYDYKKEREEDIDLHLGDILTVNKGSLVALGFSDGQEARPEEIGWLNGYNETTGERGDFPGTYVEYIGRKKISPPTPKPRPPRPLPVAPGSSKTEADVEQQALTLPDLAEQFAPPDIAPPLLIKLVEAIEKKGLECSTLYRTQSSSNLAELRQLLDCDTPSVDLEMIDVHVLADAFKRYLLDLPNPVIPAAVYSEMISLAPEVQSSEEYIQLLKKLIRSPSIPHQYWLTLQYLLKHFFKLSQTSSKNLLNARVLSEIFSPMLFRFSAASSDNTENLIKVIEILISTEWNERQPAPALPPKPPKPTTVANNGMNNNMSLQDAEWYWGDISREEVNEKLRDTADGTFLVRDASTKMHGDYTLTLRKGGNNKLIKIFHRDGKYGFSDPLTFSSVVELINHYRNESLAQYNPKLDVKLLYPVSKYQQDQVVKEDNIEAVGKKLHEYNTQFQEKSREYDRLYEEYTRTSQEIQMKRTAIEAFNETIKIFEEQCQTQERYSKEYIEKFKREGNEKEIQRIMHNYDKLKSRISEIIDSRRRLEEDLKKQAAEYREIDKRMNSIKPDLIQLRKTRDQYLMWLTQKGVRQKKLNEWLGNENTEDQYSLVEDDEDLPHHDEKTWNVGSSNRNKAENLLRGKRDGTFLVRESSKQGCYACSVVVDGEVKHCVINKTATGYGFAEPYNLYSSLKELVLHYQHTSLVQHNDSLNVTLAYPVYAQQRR
Description: as §1, §2

IC50 [2]	IC50 [3]	Structure (SMILES)	EC50 [1]
		C[C@H](Nc1ncnc2scnc12)c1cc2cccc(Cl)c2c(=O)n1-c1ccccc1 [Compound 2]	< 0.1 µM
		C[C@H](Nc1ncnc2scnc12)c1cc2cccc(Cl)c2c(=O)n1C1CC1 [Compound 8]	< 0.1 µM
		C[C@H](Nc1ncnc2scnc12)c1cc2cccc(-c3cnn(C)c3)c2c(=O)n1C1CC1 [Compound 9]	< 0.1 µM
		C[C@H](Nc1ncnc2scnc12)c1cc2cccc(-c3ccc(C(F)(F)F)nc3)c2c(=O)n1-c1ccccc1 [Compound 13]	< 0.1 µM
1 to 10 µM		C[C@H](Nc1ncnc2scnc12)c1cc2scc(Cl)c2c(=O)n1-c1ccccc1 [Compound 15]	
1 to 10 µM		C[C@H](Nc1ncnc2scnc12)c1cc2scc(-c3cnn(C)c3)c2c(=O)n1-c1ccccc1 [Compound 16]	
1 to 10 µM	1 to 10 µM	C[C@H](Nc1ncnc2scnc12)c1cc2cccc(-c3ccnc(C(F)(F)F)c3)c2c(=O)n1-c1ccccc1 [Compound 17]	
1 to 10 µM	1 to 10 µM	COc1ccc(-c2cccc3cc([C@H](C)Nc4ncnc5scnc45)n(-c4ccccc4)c(=O)c23)cn1 [Compound 18]	
1 to 10 µM	1 to 10 µM	C[C@H](Nc1ncnc2scnc12)c1cc2cccc(-c3cncnc3)c2c(=O)n1-c1ccccc1 [Compound 19]	
	1 to 10 µM	Cc1cncc(-c2cccc3cc([C@H](C)Nc4ncnc5scnc45)n(-c4ccccc4)c(=O)c23)c1 [Compound 20]	
1 to 10 µM		C[C@H](Nc1ncnc2scnc12)c1cc2cccc(-c3cncc(F)c3)c2c(=O)n1-c1ccccc1 [Compound 21]	< 0.1 µM
1 to 10 µM		C[C@H](Nc1ncnc2scnc12)c1cc2cccc(-c3ccc(F)c(F)c3)c2c(=O)n1-c1ccccc1 [Compound 22]	< 0.1 µM
1 to 10 µM		CC(C)n1cc(-c2cccc3cc([C@H](C)Nc4ncnc5scnc45)n(-c4ccccc4)c(=O)c23)cn1 [Compound 23]	
1 to 10 µM		CC(C)Cn1cc(-c2cccc3cc([C@H](C)Nc4ncnc5scnc45)n(-c4ccccc4)c(=O)c23)cn1 [Compound 24]	
1 to 10 µM	1 to 10 µM	CCn1cc(-c2cccc3cc([C@H](C)Nc4ncnc5scnc45)n(-c4ccccc4)c(=O)c23)cn1 [Compound 25]	
1 to 10 µM	1 to 10 µM	C[C@H](Nc1ncnc2scnc12)c1cc2cccc(-c3cn[nH]c3)c2c(=O)n1-c1ccccc1 [Compound 26]	
	1 to 10 µM	Cc1cc(-c2cccc3cc([C@H](C)Nc4ncnc5scnc45)n(-c4ccccc4)c(=O)c23)ccn1 [Compound 27]	
1 to 10 µM	1 to 10 µM	C[C@H](Nc1ncnc2scnc12)c1cc2cccc(-c3cccnc3)c2c(=O)n1-c1ccccc1 [Compound 28]	
1 to 10 µM	1 to 10 µM	CCCn1cc(-c2cccc3cc([C@H](C)Nc4ncnc5scnc45)n(-c4ccccc4)c(=O)c23)cn1 [Compound 29]	
1 to 10 µM	1 to 10 µM	Cc1cc(-c2cccc3cc([C@H](C)Nc4ncnc5scnc45)n(-c4ccccc4)c(=O)c23)cnc1F [Compound 30]	
	1 to 10 µM	COc1cccc(-c2cccc3cc([C@H](C)Nc4ncnc5scnc45)n(-c4ccccc4)c(=O)c23)c1 [Compound 31]	
	1 to 10 µM	C[C@H](Nc1ncnc2scnc12)c1cc2cccc(-c3ccncc3)c2c(=O)n1-c1ccccc1 [Compound 33]	
	1 to 10 µM	C[C@H](Nc1ncnc2scnc12)c1cc2cccc(-c3ccoc3)c2c(=O)n1-c1ccccc1 [Compound 34]	
1 to 10 µM	1 to 10 µM	COc1ccccc1-c1cccc2cc([C@H](C)Nc3ncnc4scnc34)n(-c3ccccc3)c(=O)c12 [Compound 35]	

IC50 [2]	IC50 [3]	Structure (SMILES)	EC50 [1]
1 to 10 µM	1 to 10 µM	COc1cnccc1-c1cccc2cc([C@H](C)Nc3ncnc4scnc34)n(-c3ccccc3)c(=O)c12 [Compound 36]	
1 to 10 µM		Cc1ncc(-c2cccc3cc([C@H](C)Nc4ncnc5scnc45)n(-c4ccccc4)c(=O)c23)cn1 [Compound 37]	
		COc1cncc(-c2cccc3cc([C@H](C)Nc4ncnc5scnc45)n(-c4ccccc4)c(=O)c23)c1 [Compound 39]	< 0.1 µM
1 to 10 µM	1 to 10 µM	Cc1cc(-c2cccc3cc([C@H](C)Nc4ncnc5scnc45)n(-c4ccccc4)c(=O)c23)cnc1C [Compound 40]	
		C[C@H](Nc1ncnc2scnc12)c1cc2cccc(-c3cnc4ccccc4c3)c2c(=O)n1-c1ccccc1 [Compound 41]	< 0.1 µM
	1 to 10 µM	Cc1nn(C)cc1-c1cccc2cc([C@H](C)Nc3ncnc4scnc34)n(-c3ccccc3)c(=O)c12 [Compound 42]	
	1 to 10 µM	C[C@H](Nc1ncnc2scnc12)c1cc2cccc(-c3cccc(N(C)C)c3)c2c(=O)n1-c1ccccc1 [Compound 45]	< 0.1 µM
	1 to 10 µM	C[C@H](Nc1ncnc2scnc12)c1cc2cccc(-c3ccc(N)nc3)c2c(=O)n1-c1ccccc1 [Compound 46]	< 0.1 µM
1 to 10 µM		C[C@H](Nc1ncnc2scnc12)c1cc2cccc(-c3ccc(N(C)C)nc3)c2c(=O)n1-c1ccccc1 [Compound 47]	< 0.1 µM
	1 to 10 µM	C[C@H](Nc1ncnc2scnc12)c1cc2cccc(-c3cnc(N)nc3)c2c(=O)n1-c1ccccc1 [Compound 50]	< 0.1 µM
	1 to 10 µM	C[C@H](Nc1ncnc2scnc12)c1cc2cccc(-c3ccc(=O)n(C)c3)c2c(=O)n1-c1ccccc1 [Compound 51]	< 0.1 µM
	1 to 10 µM	COc1cc(-c2cccc3cc([C@H](C)Nc4ncnc5scnc45)n(-c4ccccc4)c(=O)c23)ccn1 [Compound 52]	< 0.1 µM
	1 to 10 µM	C[C@H](Nc1ncnc2scnc12)c1cc2cccc(-c3cnc4c(c3)CCCO4)c2c(=O)n1-c1ccccc1 [Compound 54]	< 0.1 µM
	1 to 10 µM	C[C@H](Nc1ncnc2scnc12)c1cc2cccc(-c3cnc4ccoc4c3)c2c(=O)n1-c1ccccc1 [Compound 55]	< 0.1 µM
		C[C@H](Nc1ncnc2scnc12)c1cc2cccc(-c3cnc4nccnc4c3)c2c(=O)n1-c1ccccc1 [Compound 57]	< 0.1 µM
		C[C@H](Nc1ncnc2scnc12)c1cc2cccc(-c3ccc(N)nc3)c2c(=O)n1C1CC1 [Compound 63]	< 0.1 µM
		COc1cncc(-c2cccc3cc([C@H](C)Nc4ncnc5scnc45)n(C4CC4)c(=O)c23)c1 [Compound 64]	< 0.1 µM
		C[C@H](Nc1ncnc2scnc12)c1cc2cccc(Cl)c2c(=O)n1CCN1CCCC1 [Compound 68]	< 0.1 µM
	1 to 10 µM	Cc1ccnc2cc(C(C)Nc3ncnc4scnc34)n(-c3ccccc3)c(=O)c12 (stereo not shown) [Compound 70]	
1 to 10 µM	1 to 10 µM	C[C@H](Nc1ncnc2scnc12)c1cc2ccccc2c(=O)n1-c1ccccc1 [Compound 71]	
	1 to 10 µM	C[C@H](Nc1ncnc2scnc12)c1cc2cccc(Cl)c2c(=O)n1-c1cccc(C(F)(F)F)c1 [Compound 73]	
1 to 10 µM	1 to 10 µM	C[C@H](Nc1nc(Cl)nc2scnc12)c1cc2cccc(-c3cnn(C)c3)c2c(=O)n1-c1ccccc1 [Compound 75]	
1 to 10 µM	1 to 10 µM	C[C@H](Nc1ccnc2scnc12)c1cc2cccc(-c3cnn(C)c3)c2c(=O)n1-c1ccccc1 [Compound 91]	
	1 to 10 µM	COc1ncc(-c2cccc3cc([C@H](C)Nc4ncnc5scnc45)n(-c4ccccc4)c(=O)c23)s1 [Compound 93]	< 0.1 µM
